Experimental data as given in US20130324413A1, “METHOD FOR PROMOTING PLANT GROWTH” (SUMITOMO CHEMICAL COMPANY, LIMITED, priority 2011, published 2013).

Experiments:
Assay type in all cases: in vivo
[1] = tested on: Corn (cultivar: DeKalb 61-69); experiment: Test Example 4: field corn foliage spraying, percentage of green leaves; conditions: assessed 143 days after sowing (R6), non-treated 23.8%
Description: Corn seeds (cultivar: DeKalb 61-69) were sown at 33,684 seeds per acre and grown. Each plot in the field for treatment measured 10 feet in width and 15.5 feet in length. The treatments were arranged using the Randomized Complete Block Design method with eight replications for each treatment. Groups treated with the formulation without compound (1b) were used as the non-treated groups, in which corn was cultivated in the same manner as in the present compound-treated groups. The flowable formulation prepared as described in Formulation Example 2 was applied by foliage spraying 111 days after the sowing, at developmental stage R3 of maize. The percentage of green leaves among the leaves upper to the lowest ear of corn was determined for each formulation-treated group 143 days after the sowing, at developmental stage R6 of maize. As a result, the percentages were 41.3% and 45.6% on average, respectively, in the groups treated with 100 g and 300 g per hectare of compound (1b), while the percentage was 23.8% on average in the non-treated groups.

[2] = tested on: corn plants (cultivar: Koshu); experiment: Test Example 9: corn seed soaking, low-temperature stress, fresh weight of above-ground part; conditions: for Average fresh weight of above-ground part: low-temperature stress 3±2° C. 7 days, non-treated 1.18 g
Method: Each of the 1,000-fold concentrated dimethylsulfoxide (DMSO) solutions of compound (1b) was 1,000-fold diluted with water to prepare a soultion of compound (1b) at the test concentration. The solution was dispensed in 30 ml aliquots into […] Petri dishes, in which seeds of corn plants (cultivar: Koshu) were soaked and incubated for 16 hours at 24° C. in the dark. The corn seeds were sown in the culture soil (AISAI) in the plastic pots (55 mm in diameter×58 mm in height), and corn seedlings were grown for 4 days under the following conditions: temperature, 27° C.; illuminance, about 5,000 lux; day length, 16 hours. As a control, a 0.1% aqueous DMSO solution was prepared, and seeds were soaked in this solution and then sown and grown into seedlings in the same way as described above. This group was used as the non-treated group. The corn seedlings were placed in a phytotron under the following conditions in order to expose the plants to low-temperature stress for 7 days. • Conditions: “temperature, 3±2° C.; day length, 16 hours; • illuminance, about 5,000 lux; humidity, 35 to 80%” The plants were then grown for another 7 days under the following conditions: temperature, 27° C.; humidity, 50 to 75%, illuminance, about 5,000 lux; day length, 16 hours. Then the fresh weight of the above-ground part of the plants was measured. The experiment was performed in four replications for each individual plant for each treatment condition and the average weight per individual was calculated.

[3] = tested on: Basil (cultivar: Sweet Basil; Takii); experiment: Test Example 10: basil seedling spraying, low-temperature stress, fresh weight and damage score; conditions: for Fresh weight of above-ground part: low-temperature stress 3.0° C., non-treated 0.34 g; for Damage score: score 0 (completely killed) to 100 (survived without any damage), survived leaf area, non-treated 17
Method: Basil seeds (cultivar: Sweet Basil; Takii) were sown in the culture soil (AISAI) in plastic pots (55 mm in diameter×58 mm in height) and grown for 24 days under the following conditions to obtain a basil seedling per pot: temperature, 27° C.; humidity, 50 to 75%; illuminance, about 6,000 lux; day length, 16 hours.
Compound (1b). was dissolved in dimethylsulfoxide (DMSO) to obtain a DMSO solution of compound (lb) at a 1,000-fold concentration relative to the test concentration. This DMSO solution of compound (1b) was 1,000-fold diluted with water. Then Triton X-100 was added as a surfactant to a final concentration of 0.1%. The spray solution thus prepared was applied in a sufficient amount (15 ml per 3 pots) by means of a handspray.
As a control, a spray solution without compound (ib) was prepared and then sprayed to the non-treated group. The plants were further grown for 1 day under the following conditions: temperature, 27° C.; humidity, 50 to 75%; illuminance, about 6,000 lux; day length, 16 hours.
Subsequently, the basil seedlings were placed in a phytotron under the following conditions, to expose the plants to low-temperature stress. • Conditions: “temperature, 3.0° C.; illuminance, 800 lux; • humidity, 50 to 80%”
The plants were further grown for another 2 days under the following conditions: temperature, 27° C.; humidity, 50 to 75%, illuminance, about 6,000 lux; day length, 16 hours.
The percentage of the leaf area of the portions of true leaves of the basil seedlings which survived without being damaged was scored as follows: completely killed with 0% of the survived leaf area to the total leaf area: 0; survived without any damage with 100% of the survived leaf area to the total leaf: 100; and scored from 0 to 100 by increment of 1 by visual observation. The scores of three plants were averaged to determine the damage score. The aerial part of the basil seedlings was removed to measure the fresh weight of the above-ground part. The average weight of three individuals was recorded as the fresh weight of the above-ground part.

[4] = tested on: oilseed rape (Brasicca napus); experiment: Test Example 11: oilseed rape field application, yield of the seeds; conditions: flowable formulation, 250 g per hectare at day 240 (BBCH 63); evaluated day 334; non-treated 4.25 tons/hectare
Description: Seeds of oilseed rape (Brasicca napus) were sown at 5.5 kg seeds per hectare and grown. At day 240 after the sowing, at growth stage 63, according to the Biologische Bundesanstalt, Bundessortenamt and CHemical industry (BBCH) scale, the flowable formulation prepared as described in Formulation Example 2 containing compound (1b) was applied in an amount of 250 g per hectare. A group for the treatment measured 2 m×12 m. This group was the present compound-treated group. A group treated with the formulation without compound (1b) was used as the non-treated group, in which plants were cultivated in the same manner as in the treated group.
At day 334 after the sowing, the yield of the seeds was evaluated. As a result, the yield calculated presuming 9% seed water content was 4.55 tons/hectare in the present compound-treated group, while it was 4.25 tons/hectare in the non-treated group. During the testing, no diseases were observed that affected the yield either in the present compound-treated or non-treated group.

## CNC(=O)C(OC)c1ccccc1COc1cc(C)ccc1C (racemic) [Compound (1b), N-methyl-2-[2-(2,5-dimethylphenoxy)methyl]phenyl-2-methoxyacetamide]
[1]; foliage spraying 100 g per hectare at 111 days (R3)
  percentage of green leaves among the leaves upper to the lowest ear (average): 41.3%
[1]; foliage spraying 300 g per hectare at 111 days (R3)
  percentage of green leaves among the leaves upper to the lowest ear (average): 45.6%
[2]; plants exposed to low-temperature stress, concentration range of 3 ppm to 30 ppm
  fresh weight of the above-ground part as compared with the non-treated group: increased
[2]; seed soaking 3 ppm
  Average fresh weight of above-ground part: 1.49 g
[2]; seed soaking 10 ppm
  Average fresh weight of above-ground part: 2.25 g
[2]; seed soaking 30 ppm
  Average fresh weight of above-ground part: 1.35 g
[3]; spray 10 ppm
  Fresh weight of above-ground part: 0.62 g
  Damage score: 30
[3]; spray 30 ppm
  Fresh weight of above-ground part: 0.72 g
  Damage score: 38
[3]; spray 100 ppm
  Fresh weight of above-ground part: 0.92 g
  Damage score: 81
[3]; spray 250 ppm
  Fresh weight of above-ground part: 0.94 g
  Damage score: 68
[4]
  yield of the seeds calculated presuming 9% seed water content: 4.55 tons/hectare
